Reference: US20230114728A1 (Venatorx Pharmaceuticals, Inc., priority 2019, published 2023)
Values after ≈ are worked out from the molar mass of the structure shown. Like-named read-outs stand apart in the source and are kept apart here.

What was measured:
[1] = tested on: P. aeruginosa (ΔmexAB-oprM); assay: Broth microdilution MIC in CAMHB; type: cell-based; conditions: Pseudomonas aeruginosa, read-out: Minimum Inhibitory Concentration, P. aeruginosa ΔmexAB-OprM
In short: (§1)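 CLSI microdilution; CAMHB; inoculum 2-8×10^5 CFU/mL from 3-5 h 37° C culture; 2-fold compound series; 16-20 h, 37° C; MIC = lowest well without visible growth.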

E. coli AG100 = assay: Broth microdilution MIC in CAMHB; type: cell-based; conditions: Escherichia coli
In short: as §1

[2] = tested on: K. pneumoniae 848844 producing SHV-11 and KPC-2; assay: Broth microdilution MIC in CAMHB; type: cell-based; conditions: Klebsiella pneumoniae, read-out: Minimum Inhibitory Concentration, K. pneumoniae 848844
In short: as §1

E. coli D22 = assay: Broth microdilution MIC in CAMHB; type: cell-based; conditions: Escherichia coli
In short: as §1

E. coli 901C = assay: Broth microdilution MIC in CAMHB; type: cell-based; conditions: Escherichia coli, read-out: Minimum Inhibitory Concentration, E. coli 901C
In short: as §1

[3] = tested on: K. pneumoniae UMM producing SHV-5 and KPC-2; assay: Broth microdilution MIC in CAMHB; type: cell-based; conditions: Klebsiella pneumoniae, read-out: Minimum Inhibitory Concentration, K. pneumoniae UMM
In short: as §1

E. coli ATCC 25922 = assay: Broth microdilution MIC in CAMHB; type: cell-based; conditions: Escherichia coli
In short: as §1

A. baumannii ATCC 19606 = assay: Broth microdilution MIC in CAMHB; type: cell-based; conditions: Acinetobacter baumannii
In short: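 MIC, read by eye, is the lowest compound concentration giving no bacterial growth after 16-20 h at 37° C. Test compounds are serially diluted 2-fold in CAMHB and seeded with 2-8×10^5 CFU/mL of bacteria taken from a 3-5 h shaking culture, following CLSI methods.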

E. coli K12 PBP3 = biological target: T1, E. coli K12 PBP3 (Escherichia coli, UniProt P0AD68); assay: biochemical; type: binding
T1 construct: made in house
T1 sequence (P0AD68 1-577): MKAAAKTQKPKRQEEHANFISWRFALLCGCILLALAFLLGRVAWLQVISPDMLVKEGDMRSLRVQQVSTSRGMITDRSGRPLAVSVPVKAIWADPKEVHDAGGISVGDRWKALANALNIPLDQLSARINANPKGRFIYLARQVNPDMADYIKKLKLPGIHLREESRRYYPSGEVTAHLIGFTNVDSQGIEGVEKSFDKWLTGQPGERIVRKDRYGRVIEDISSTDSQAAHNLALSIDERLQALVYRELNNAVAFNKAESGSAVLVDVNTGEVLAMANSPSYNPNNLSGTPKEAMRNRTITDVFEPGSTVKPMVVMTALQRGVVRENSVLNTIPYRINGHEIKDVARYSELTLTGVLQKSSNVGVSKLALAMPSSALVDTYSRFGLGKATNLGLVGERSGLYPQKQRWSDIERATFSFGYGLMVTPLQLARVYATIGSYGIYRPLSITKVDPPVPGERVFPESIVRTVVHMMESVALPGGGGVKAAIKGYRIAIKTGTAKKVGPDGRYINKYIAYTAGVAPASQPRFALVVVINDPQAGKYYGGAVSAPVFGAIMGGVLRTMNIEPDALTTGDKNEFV
In short: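 A. baumannii PBP2 (2.5 μM) and PBP3 (0.2 μM) were run in 25 mM Tris pH 8.0 buffer with Tween 20; E. coli PBP3 (1.5 μM) and N. gonorrhoeae PBP2 ([…]) in 50 mM Hepes pH 8.0 buffer.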

[4] = E. coli AG100 (wild-type parent), MHB, read-out: Minimum Inhibitory Concentration, E. coli AG100
[5] = E. coli D22 (hyper-permeable), MHB, read-out: Minimum Inhibitory Concentration, E. coli D22
[6] = E. coli 901C (hyper-permeable), MHB
[7] = ATCC25922, E. coli ATCC 25922, MHB, read-out: Minimum Inhibitory Concentration, E. coli 25922
[8] = ATCC19606, MHB, read-out: Minimum Inhibitory Concentration, A. baumannii ATCC 19606

Compound | MIC [1] | MIC (E. coli AG100; [4]) | MIC [2] | MIC (E. coli D22; [5]) | MIC (E. coli 901C; [6]) | MIC [3] | MIC (E. coli ATCC 25922; [7]) | MIC (A. baumannii ATCC 19606; [8]) | EC50 (E. coli K12 PBP3) | MIC (E. coli AG100; AG100, read-out: Minimum Inhibitory Concentration, E. coli AG100) | MIC (E. coli D22; D22, read-out: Minimum Inhibitory Concentration, E. coli D22) | MIC (E. coli 901C; 901C) | MIC (E. coli ATCC 25922; ATCC25922, read-out: Minimum Inhibitory Concentration, E. coli 25922) | MIC (A. baumannii ATCC 19606; ATCC19606, read-out: Minimum Inhibitory Concentration, A. baumannii ATCC 19606)
CCN1CCN(C(=O)NC(C(=O)N[C@H]2Cc3ccc(CO)c(C(=O)O)c3OB2O)c2csc(N)n2)C(O)C1=O (stereo partly drawn) [Example 58, (3R)-3-(2-(2-aminothiazol-4-yl)-2-(4-ethyl-2-hydroxy-3-oxopiperazine-1-carboxamido)acetamido)-2-hydroxy-7-(hydroxymethyl)-3,4-dihydro-2H-benzo[el][1,2]oxaborinine-8-carboxylic acid] | > 128 µg/mL | > 128 µg/mL | > 128 µg/mL | > 128 µg/mL | 32 to 64 µg/mL (≈ 56.9 to 114 µM) | > 128 µg/mL | > 128 µg/mL | > 128 µg/mL | 30 to 500 µM |  |  |  |  | 
CCN1CCN(C(=O)N[C@@H](C(=O)N[C@H]2Cc3cccc(C(=O)O)c3OB2O)c2cc(O)cc(O)c2)C(=O)C1=O (single isomer, unassigned) [Example 82] | 32 to 64 µg/mL (≈ 59.2 to 118 µM) | 8 to 16 µg/mL (≈ 14.8 to 29.6 µM) | > 128 µg/mL | 2 to 4 µg/mL (≈ 3.7 to 7.4 µM) | < 0.25 µg/mL | 32 to 64 µg/mL (≈ 59.2 to 118 µM) | 32 to 64 µg/mL (≈ 59.2 to 118 µM) | 32 to 64 µg/mL (≈ 59.2 to 118 µM) | 30 to 500 µM |  |  |  |  | 
N[C@@H](C(=O)N[C@H]1Cc2ccc(F)c(C(=O)O)c2OB1O)c1ccc(OS(=O)(=O)F)cc1 [Example 32, (R)-3-((R)-2-amino-2-(4-((fluorosulfonyl)oxy)phenyl)acetamido)-7-fluoro-2-hydroxy-3,4-dihydro-2H-benzo[e][1,2]oxaborinine-8-carboxylic acid] | > 128 µg/mL |  | > 128 µg/mL |  |  | > 128 µg/mL |  |  | > 500 µM | > 128 µg/mL | > 128 µg/mL | > 128 µg/mL | > 128 µg/mL | > 128 µg/mL
CCN1CCN(C(=O)NC(C(=O)N[C@H]2Cc3ccc(OCCN)c(C(=O)O)c3OB2O)c2ccccc2)C(=O)C1=O (stereo partly drawn) [Example 60, (3R)-7-(2-aminoethoxy)-3-(2-(4-ethyl-2,3-dioxopiperazine-1-carboxamido)-2-phenylacetamido)-2-hydroxy-3,4-dihydro-2H-benzo[e][1,2]oxaborinine-8-carboxylic acid] | 32 to 64 µg/mL (≈ 56.4 to 113 µM) | > 128 µg/mL | > 128 µg/mL | 32 to 64 µg/mL (≈ 56.4 to 113 µM) | 8 to 16 µg/mL (≈ 14.1 to 28.2 µM) | > 128 µg/mL | > 128 µg/mL | > 128 µg/mL | 30 to 500 µM |  |  |  |  | 
N=C(N)NC(C(=O)N[C@H]1Cc2ccc(F)c(C(=O)O)c2OB1O)c1ncc(O)cc1F (stereo partly drawn) [Example 52, (3R)-7-fluoro-3-(2-(3-fluoro-5-hydroxypyridin-2-yl)-2-guanidinoacetamido)-2-hydroxy-3,4-dihydro-2H-benzo[e][1,2]oxaborinine-8-carboxylic acid] | > 128 µg/mL | > 128 µg/mL | > 128 µg/mL | > 128 µg/mL | > 128 µg/mL | > 128 µg/mL | > 128 µg/mL | > 128 µg/mL | > 500 µM |  |  |  |  | 
CCN1CCN(C(=O)NC(C(=O)N[C@H]2Cc3cccc(C(=O)O)c3OB2O)c2ccc(C(=O)O)c(OC)c2)C(=O)C1=O (stereo partly drawn) [Example 48, (3R)-3-(2-(4-carboxy-3-methoxyphenyl)-2-(4-ethyl-2,3-dioxopiperazine-1-carboxamido)acetamido)-2-hydroxy-3,4-dihydro-2H-benzo[e][1,2]oxaborinine-8-carboxylic acid] | 8 to 16 µg/mL (≈ 13.7 to 27.5 µM) | > 128 µg/mL | > 128 µg/mL | < 0.25 µg/mL | 2 to 4 µg/mL (≈ 3.43 to 6.87 µM) | > 128 µg/mL | 32 to 64 µg/mL (≈ 55 to 110 µM) | > 128 µg/mL | < 30 µM |  |  |  |  | 
NCCN1CCN(C(=O)N[C@@H](C(=O)N[C@H]2Cc3cccc(C(=O)O)c3OB2O)c2ccc(O)cc2F)C(=O)C1=O (single isomer, unassigned) [Example 89] | 8 to 16 µg/mL (≈ 14.4 to 28.7 µM) | 32 to 64 µg/mL (≈ 57.4 to 115 µM) | 32 to 64 µg/mL (≈ 57.4 to 115 µM) | 8 to 16 µg/mL (≈ 14.4 to 28.7 µM) | 2 to 4 µg/mL (≈ 3.59 to 7.18 µM) | 32 to 64 µg/mL (≈ 57.4 to 115 µM) | 32 to 64 µg/mL (≈ 57.4 to 115 µM) | > 128 µg/mL | 30 to 500 µM |  |  |  |  | 
CCN1CCN(C(=O)NC(C(=O)N[C@H]2Cc3ccc(S)c(C(=O)O)c3OB2O)c2csc(N)n2)C(=O)C1=O (stereo partly drawn) [Example 54, (3R)-3-(2-(2-aminothiazol-4-yl)-2-(4-ethyl-2,3-dioxopiperazine-1-carboxamido)acetamido)-2-hydroxy-7-mercapto-3,4-dihydro-2H-benzo[e][1,2]oxaborinine-8-carboxylic acid] | 32 to 64 µg/mL (≈ 56.9 to 114 µM) | > 128 µg/mL | > 128 µg/mL | 32 to 64 µg/mL (≈ 56.9 to 114 µM) | 0.5 to 1 µg/mL (≈ 0.889 to 1.78 µM) | > 128 µg/mL | > 128 µg/mL | > 128 µg/mL | 30 to 500 µM |  |  |  |  | 
CCN1CCN(C(=O)NC(C(=O)N[C@H]2Cc3ccc(F)c(C(=O)O)c3OB2O)c2nc(N)sc2F)C(=O)C1=O (stereo partly drawn) [Example 18, (3R)-3-(2-(2-amino-5-fluorothiazol-4-yl)-2-(4-ethyl-2,3-dioxopiperazine-1-carboxamido)acetamido)-7-fluoro-2-hydroxy-3,4-dihydro-2H-benzo[e][1,2]oxaborinine-8-carboxylic acid] | 8 to 16 µg/mL (≈ 14.1 to 28.3 µM) | 32 to 64 µg/mL (≈ 56.5 to 113 µM) | 32 to 64 µg/mL (≈ 56.5 to 113 µM) | 2 to 4 µg/mL (≈ 3.53 to 7.06 µM) | 0.5 to 1 µg/mL (≈ 0.883 to 1.77 µM) | 8 to 16 µg/mL (≈ 14.1 to 28.3 µM) | 8 to 16 µg/mL (≈ 14.1 to 28.3 µM) | > 128 µg/mL | < 30 µM |  |  |  |  | 
CCN1CCN(C(=O)NC(C(=O)N[C@H]2Cc3cccc(C(=O)O)c3OB2O)c2ccc(O)cc2OC)C(=O)C1=O (stereo partly drawn) [Example 70, (3R)-3-(2-(4-ethyl-2,3-dioxopiperazine-1-carboxamido)-2-(4-hydroxy-2-methoxyphenyl)acetamido)-2-hydroxy-3,4-dihydro-2H-benzo[e][1,2]oxaborinine-8-carboxylic acid] | 8 to 16 µg/mL (≈ 14.4 to 28.9 µM) | > 128 µg/mL | > 128 µg/mL | 8 to 16 µg/mL (≈ 14.4 to 28.9 µM) | 0.5 to 1 µg/mL (≈ 0.902 to 1.8 µM) | > 128 µg/mL | > 128 µg/mL | > 128 µg/mL | 30 to 500 µM |  |  |  |  | 
CCN1CCN(C(=O)N[C@H](C(=O)N[C@H]2Cc3cccc(C(=O)O)c3OB2O)c2cc(Cl)c(O)cc2Cl)C(=O)C1=O (single isomer, unassigned) [Example 92] | > 128 µg/mL | > 128 µg/mL | > 128 µg/mL | > 128 µg/mL | 2 to 4 µg/mL (≈ 3.37 to 6.74 µM) | > 128 µg/mL | > 128 µg/mL | > 128 µg/mL | > 500 µM |  |  |  |  | 
NCCN1CCN(C(=O)N[C@@H](C(=O)N[C@H]2Cc3cccc(C(=O)O)c3OB2O)c2cc(Cl)c(O)cc2Cl)C(=O)C1=O [Example 90, (R)-3-((R)-2-(4-(2-aminoethyl)-2,3-dioxopiperazine-1-carboxamido)-2-(2,5-dichloro-4-hydroxyphenyl)acetamido)-2-hydroxy-3,4-dihydro-2H-benzo[e][1,2]oxaborinine-8-carboxylic acid] | > 128 µg/mL | 32 to 64 µg/mL (≈ 52.6 to 105 µM) | > 128 µg/mL | 8 to 16 µg/mL (≈ 13.2 to 26.3 µM) | 0.5 to 1 µg/mL (≈ 0.822 to 1.64 µM) | > 128 µg/mL | > 128 µg/mL | > 128 µg/mL | < 30 µM |  |  |  |  | 
CCN1CCN(C(=O)NC(C(=O)N[C@H]2Cc3cccc(C(=O)O)c3OB2O)c2cccc(NC(=O)c3ccc(O)c(O)c3Cl)c2)C(=O)C1=O (stereo partly drawn) [Example 73, (3R)-3-(2-(3-(2-chloro-3,4-dihydroxybenzamido)phenyl)-2-(4-ethyl-2,3-dioxopiperazine-1-carboxamido)acetamido)-2-hydroxy-3,4-dihydro-2H-benzo[e][1,2]oxaborinine-8-carboxylic acid] | 0.5 to 1 µg/mL (≈ 0.721 to 1.44 µM) | 2 to 4 µg/mL (≈ 2.88 to 5.76 µM) | 8 to 16 µg/mL (≈ 11.5 to 23.1 µM) | 2 to 4 µg/mL (≈ 2.88 to 5.76 µM) | < 0.25 µg/mL | 0.5 to 1 µg/mL (≈ 0.721 to 1.44 µM) | 2 to 4 µg/mL (≈ 2.88 to 5.76 µM) | 0.5 to 1 µg/mL (≈ 0.721 to 1.44 µM) | < 30 µM |  |  |  |  | 
